Reference: patent US20240262833A1, “FUSED HETEROCYCLIC DERIVATIVES AS NEGATIVE ALLOSTERIC MODULATORS OF MGLU7 RECEPTOR” (Addex Pharma S.A., priority 2021, published 2024)

biological target: T1, human metabotropic glutamate 7 receptor (hmGlu7) (Homo sapiens, UniProt Q14831); experiment: mGlu7 assay on HEK-expressing human mGlu7: fluorescent cell based Ca2+ mobilization assay (FLIPR), inhibition of EC80 L-AP4 response; conditions: HEK-293 cells expressing hmGlu7; EC80 L-AP4 stimulation; mean of at least three independent experiments in duplicate; read-out: Ca2+ Flux (mean IC50)
T1 construct: expressed in transfected cells
T1 sequence (Q14831 35-922 isoform Q14831-2): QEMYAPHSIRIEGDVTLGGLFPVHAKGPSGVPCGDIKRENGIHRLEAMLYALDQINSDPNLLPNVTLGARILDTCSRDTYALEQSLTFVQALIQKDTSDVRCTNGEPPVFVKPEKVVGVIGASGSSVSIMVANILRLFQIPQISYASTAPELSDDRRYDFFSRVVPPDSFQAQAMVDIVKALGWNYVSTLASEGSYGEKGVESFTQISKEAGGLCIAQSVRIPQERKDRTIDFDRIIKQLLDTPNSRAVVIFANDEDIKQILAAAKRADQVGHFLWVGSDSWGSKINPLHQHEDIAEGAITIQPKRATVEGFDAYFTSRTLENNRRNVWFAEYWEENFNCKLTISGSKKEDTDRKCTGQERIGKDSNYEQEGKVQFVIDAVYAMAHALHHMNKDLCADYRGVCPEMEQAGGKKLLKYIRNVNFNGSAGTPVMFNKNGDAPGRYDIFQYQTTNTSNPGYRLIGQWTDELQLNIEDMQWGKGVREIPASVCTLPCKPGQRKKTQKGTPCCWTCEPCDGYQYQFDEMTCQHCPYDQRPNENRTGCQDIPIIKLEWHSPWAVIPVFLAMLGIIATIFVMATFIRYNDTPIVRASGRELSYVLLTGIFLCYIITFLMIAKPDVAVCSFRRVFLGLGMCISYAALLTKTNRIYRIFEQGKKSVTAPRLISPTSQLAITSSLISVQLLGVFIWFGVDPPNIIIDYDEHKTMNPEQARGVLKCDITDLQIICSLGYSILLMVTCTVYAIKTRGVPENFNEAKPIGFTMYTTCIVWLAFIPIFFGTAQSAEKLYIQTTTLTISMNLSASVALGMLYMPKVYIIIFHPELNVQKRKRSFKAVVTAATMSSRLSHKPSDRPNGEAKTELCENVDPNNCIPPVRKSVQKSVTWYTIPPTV
Excerpt: mGlu7 Assay on HEK-Expressing Human mGlu7
The cDNA encoding the human metabotropic glutamate 7 receptor (hmGlu7), (accession number NM_181874.2, NCBI Nucleotide database browser), was subcloned into an expression vector containing also the hygromycin resistance gene. In parallel, the cDNA encoding a G protein allowing redirection of the activation signal to intracellular calcium flux was subcloned into a different expression vector containing also the Puromycin resistance gene. Transfection of both these vectors into HEK293 cells with PolyFect reagent (Qiagen) according to supplier's protocol, and hygromycin and puromycin treatment allowed selection of antibiotic resistant cells which had integrated stably one or more copies of the plasmids. Positive cellular clones expressing hmGlu7 were identified in a functional assay measuring changes in calcium fluxes in response to glutamate and L-AP4 or known mGlu7 orthosteric antagonists.
HEK-293 cells expressing hmGlu7 were maintained in media containing DMEM, Fetal Bovine Serum (10%), Glutamax™ (2 mM), penicillin (100 units/mL), streptomycin (100 μg/mL), geneticin (100 μg/mL) and hygromycin-B (40 μg/mL) and puromycin (1 μg/mL) at 37° C. with 5% CO2 in a humidified atmosphere.
Fluorescent Cell Based-Ca^2+ Mobilization Assay Human mGlu7 HEK-293 cells were plated out 24 hours prior to a fluorescent cell-based calcium mobilization assay using FLIPR^384 assay (Molecular Device, Sunnyvale, CA, USA) in black-walled, clear-bottomed, poly-L-ornithine-coated 384-well plates at a density of 25,000 cells/well in a glutamine/glutamate free DMEM medium containing fetal bovine serum (10%), penicillin (100 units/mL), streptomycin (100 μg/mL) and doxycyline (1 μg/ml) at 37° C. with 5% CO2 in a humidified atmosphere.
On the day of the assay, the medium was aspirated and the cells were loaded with a 3 μM solution of Fluo4-AM (LuBioScience, Lucerne, Switzerland) in 0.03% pluronic acid. After 1 hour at 37° C./5% CO2, the non incorporated dye was removed by washing cell plate with the assay buffer. All assays were performed in a pH 7.4 buffered-solution containing 20 mM HEPES, 143 mM NaCl, 6 mM KCl, 1 mM MgSO4, 1 mM CaCl2, 0.125 mM sulfinpyrazone and 0.1% glucose.
After 10 s of basal fluorescence recording, various concentrations of the compounds of the invention were added to the cells. Changes in fluorescence levels were first monitored for 180 s in order to detect any agonist activity of the compounds. Then the cells were stimulated by an EC80 L-AP4 concentration for an additional 110 s in order to measure inhibiting activities of the compounds of the invention. EC80 L-AP4 concentration is the concentration giving 80% of the maximal glutamate response.
The concentration-response curves of L-AP4 or representative compounds of the present invention were generated using the Prism GraphPad software (Graph Pad Inc, San Diego, USA). The curves were fitted to a four-parameter logistic equation: […]
allowing determination of IC50 values.
The Table 3 below represents the mean IC50 obtained from at least three independent experiments of selected molecules performed in duplicate.

IC50 [nM]	SMILES
< 100	Cc1ccc(-n2c(C)c3cnn(-c4ccccc4)c(=O)c3c2C)cc1 [1-1]
100 to 1000	Cc1c2cnn(-c3ccccn3)c(=O)c2c(C)n1-c1ccc(Cl)cc1 [1-3]
100 to 1000	Cc1c2cnn(-c3ccccc3)c(=O)c2c(C)n1-c1ccccc1 [1-4]
1000 to 10000	COc1ccccc1-n1ncc2c(C)n(-c3ccccc3)c(C)c2c1=O [1-5]
< 100	Cc1cccc(-n2c(C)c3cnn(-c4ccccc4)c(=O)c3c2C)c1 [1-6]
100 to 1000	Cc1ccccc1-n1c(C)c2cnn(-c3ccccc3)c(=O)c2c1C [1-7]
100 to 1000	Cc1c2cnn(-c3ccccc3)c(=O)c2c(C)n1-c1ccc(Cl)cc1 [1-8]
100 to 1000	Cc1c2cnn(-c3cccnc3)c(=O)c2c(C)n1-c1ccccc1 [1-9]
100 to 1000	Cc1c2cnn(-c3cccc(F)c3)c(=O)c2c(C)n1-c1ccccc1 [1-10]
< 100	Cc1c2cnn(-c3ccc(F)cc3)c(=O)c2c(C)n1-c1ccccc1 [1-11]
< 100	COc1cccc(-n2ncc3c(C)n(-c4ccccc4)c(C)c3c2=O)c1 [1-12]
100 to 1000	COc1ccc(-n2ncc3c(C)n(-c4ccccc4)c(C)c3c2=O)cc1 [1-13, 2-(4-Methoxyphenyl)-5,7-dimethyl-6-phenyl-2,6-dihydro-1H-pyrrolo[3,4-d]pyridazin-1-one]
< 100	Cc1cccc(-n2ncc3c(C)n(-c4ccccc4)c(C)c3c2=O)c1 [1-14]
< 100	Cc1ccc(-n2ncc3c(C)n(-c4ccccc4)c(C)c3c2=O)cc1 [1-15]
100 to 1000	Cc1c2cnn(-c3cccc(C#N)c3)c(=O)c2c(C)n1-c1ccccc1 [1-16]
100 to 1000	Cc1c2cnn(-c3ccc(C#N)cc3)c(=O)c2c(C)n1-c1ccccc1 [1-17]
100 to 1000	COc1ccccc1-n1c(C)c2cnn(-c3ccccc3)c(=O)c2c1C [1-18]
100 to 1000	Cc1c2cnn(-c3ccccc3)c(=O)c2c(C)n1-c1ccccc1Cl [1-19]
100 to 1000	Cc1c2cnn(-c3ccccc3Cl)c(=O)c2c(C)n1-c1ccccc1 [1-20]
1000 to 10000	Cc1c2cnn(-c3ccccn3)c(=O)c2c(C)n1-c1ccccc1 [1-22]
100 to 1000	Cc1c2cnn(-c3ccccc3)c(=O)c2c(C)n1-c1ccc(N(C)C)cc1 [1-23]
100 to 1000	COc1ccc(-n2c(C)c3cnn(-c4ccccc4)c(=O)c3c2C)cc1 [1-24]
1000 to 10000	Cc1c2cnn(-c3ccccc3)c(=O)c2c(C)n1-c1ccccn1 [1-25]
100 to 1000	CC(=O)c1ccc(-n2ncc3c(C)n(-c4ccccc4)c(C)c3c2=O)cc1 [1-27]
< 100	Cc1c2cnn(-c3ccc(S(N)(=O)=O)cc3)c(=O)c2c(C)n1-c1ccccc1 [1-28]

IC50 [nM]	SMILES
100 to 1000	Cc1c2cnn(-c3ccccc3)c(=O)c2c(C)n1-c1ccccc1F [1-29]
100 to 1000	Cc1c2cnn(-c3ccc(S(C)(=O)=O)cc3)c(=O)c2c(C)n1-c1ccccc1 [1-30]
< 100	CC(=O)c1ccc(-n2c(C)c3cnn(-c4ccccc4)c(=O)c3c2C)cc1 [1-31]
100 to 1000	Cc1ccc(-n2c(C)c3cnn(-c4ccccc4)c(=O)c3c2C)c(C)c1 [1-32]
100 to 1000	Cc1c2cnn(-c3ccccc3)c(=O)c2c(C)n1-c1cccc(N2CCOCC2)c1 [1-33]
1000 to 10000	Cc1c2cnn(-c3ccccc3)c(=O)c2c(C)n1-c1cccc(Br)c1 [1-34, 6-(3-bromophenyl)-5,7-dimethyl-2-phenyl-2,6-dihydro-1H-pyrrolo[3,4-d]pyridazin-1-one]
< 100	Cc1c2cnn(-c3ccccc3)c(=O)c2c(C)n1-c1cccc(N(C)C)c1 [1-35]
100 to 1000	Cc1c2cnn(-c3ccncc3)c(=O)c2c(C)n1-c1ccccc1 [1-37]
< 100	COCc1ccc(-n2ncc3c(C)n(-c4ccccc4)c(C)c3c2=O)cc1 [1-38]
100 to 1000	Cc1ccc(-n2c(C)c3cnn(-c4cccnc4)c(=O)c3c2C)cc1 [1-39]
100 to 1000	Cc1cccc(-n2c(C)c3cnn(-c4cccnc4)c(=O)c3c2C)c1 [1-40]
100 to 1000	COc1cccc(-n2c(C)c3cnn(-c4cccnc4)c(=O)c3c2C)c1 [1-41]
1000 to 10000	COCCNc1ccc(-n2c(C)c3cnn(-c4ccccc4)c(=O)c3c2C)cc1 [1-42]
100 to 1000	COc1cccc(-n2c(C)c3cnn(-c4ccccn4)c(=O)c3c2C)c1 [1-44]
100 to 1000	Cc1cccc(-n2c(C)c3cnn(-c4ccccn4)c(=O)c3c2C)c1 [1-45]
100 to 1000	COc1ccc(-n2c(C)c3cnn(-c4cccnc4)c(=O)c3c2C)cc1 [1-46]
100 to 1000	COc1ccc(-n2c(C)c3cnn(-c4ccccn4)c(=O)c3c2C)cc1 [1-47]
100 to 1000	Cc1ccc(-n2c(C)c3cnn(-c4ccccn4)c(=O)c3c2C)cc1 [1-48]
100 to 1000	Cc1c2cnn(-c3ccccc3)c(=O)c2c(C)n1-c1cccc(N2CCCC2=O)c1 [1-49]
100 to 1000	Cc1ccc(-n2ncc3c(C)n(-c4ccccc4)c(C)c3c2=O)cn1 [1-50]
100 to 1000	COc1ccc(-n2ncc3c(C)n(-c4ccccc4)c(C)c3c2=O)cn1 [1-52]
100 to 1000	Cc1c2cnn(-c3ccccn3)c(=O)c2c(C)n1-c1cccc(C(F)(F)F)c1 [1-53]
1000 to 10000	Cc1c2cnn(-c3ccccn3)c(=O)c2c(C)n1-c1cccc(C#N)c1 [1-54]
100 to 1000	Cc1c2cnn(-c3ccccn3)c(=O)c2c(C)n1-c1ccc2c(c1)OCO2 [1-55]
1000 to 10000	Cc1ccc(-n2c(C)c3cnn(-c4ccccn4)c(=O)c3c2C)nc1 [1-56]

IC50 [nM]	SMILES
100 to 1000	Cc1c2cnn(-c3ccc(C(N)=O)cc3)c(=O)c2c(C)n1-c1ccccc1 [1-57]
1000 to 10000	Cc1c2cnn(-c3ncccn3)c(=O)c2c(C)n1-c1ccccc1 [1-58]
< 100	Cc1c2cnn(-c3ccccn3)c(=O)c2c(C)n1-c1cccc(N2CCCC2)c1 [1-59]
100 to 1000	CCOc1ccc(-n2ncc3c(C)n(-c4ccccc4)c(C)c3c2=O)cc1 [1-60]
100 to 1000	COc1cccc(-n2c(C)c3cnn(-c4ccc5ccccc5n4)c(=O)c3c2C)c1 [1-61]
1000 to 10000	COc1cc(-n2c(C)c3cnn(-c4ccccn4)c(=O)c3c2C)ccn1 [1-62]
1000 to 10000	Cc1c2cnn(-c3cccnc3)c(=O)c2c(C)n1-c1cccc(N2CCOCC2)c1 [1-64]
< 100	COc1cccc(-n2c(C)c3cnn(-c4ccc(CNC(C)=O)cc4)c(=O)c3c2C)c1 [1-65]
< 100	COc1cccc(-n2c(C)c3cnn(-c4ccc(CO)cc4)c(=O)c3c2C)c1 [1-66]
100 to 1000	COc1ccc(-n2ncc3c(C)n(-c4cccc(N5CCOCC5)c4)c(C)c3c2=O)cc1 [1-67]
100 to 1000	Cc1c2cnn(-c3ccc(S(N)(=O)=O)cc3)c(=O)c2c(C)n1-c1cccc(N2CCOCC2)c1 [1-68]
100 to 1000	COCc1ccc(-n2ncc3c(C)n(-c4cccc(N5CCOCC5)c4)c(C)c3c2=O)cc1 [1-69]
100 to 1000	COc1cccc(-n2c(C)c3cnn(-c4ccc(N5CCOCC5)cc4)c(=O)c3c2C)c1 [1-70]
100 to 1000	COc1cccc(-n2c(C)c3cnn(-c4ccc(-c5ccccc5)cc4)c(=O)c3c2C)c1 [1-71]
1000 to 10000	COc1cc(-n2c(C)c3cnn(-c4ccccn4)c(=O)c3c2C)ccc1Cl [1-72]
100 to 1000	COc1cccc(-n2c(C)c3cnn(-c4cccc(C(N)=O)c4)c(=O)c3c2C)c1 [1-73]
1000 to 10000	COc1cccc(-n2c(C)c3cnn(-c4cccc(OC)n4)c(=O)c3c2C)c1 [1-74]
100 to 1000	COc1cccc(-n2c(C)c3cnn(-c4ccc(C(=O)N(C)C)cc4)c(=O)c3c2C)c1 [1-75]
100 to 1000	CCOc1cccc(-n2c(C)c3cnn(-c4ccccn4)c(=O)c3c2C)c1 [1-77]
100 to 1000	CCc1c2c(=O)n(-c3ccccn3)ncc2c(C)n1-c1cccc(OC)c1 [1-78]
100 to 1000	COc1cc(-n2c(C)c3cnn(-c4ccccn4)c(=O)c3c2C)ccc1C [1-79]
1000 to 10000	Cc1c2cnn(-c3ccccn3)c(=O)c2c(C)n1-c1ccc2cc[nH]c2c1 [1-80]
1000 to 10000	COc1ccc(-n2ncc3c(C)n(-c4ccccn4)c(C)c3c2=O)cc1 [1-81]
100 to 1000	COc1ccc(-n2ncc3c(C)n(-c4cccc(OC)c4)c(C)c3c2=O)nc1 [1-83]
